US5466671A, “Apidaecin-type peptide antibiotics with improved activities and/or different antibacterial spectrum” (priority 1994, dated 1995)
Residues, ends and D or L forms follow the SMILES beside them.

Columns and labels:
gram positives = conditions: cited from earlier work
gram negative bacteria = conditions: many gram negative bacteria; cited from earlier work
Klebsiella pneumoniae = experiment: Inhibition zone assay (agar plate); format: cell-based
Salmonella typhi = format: cell-based
Erwinia amylovora = experiment: Inhibition zone assay (agar plate); format: cell-based
[1] = system: Acinetobacter calcoaceticus; experiment: Inhibition zone assay (agar plate); format: cell-based
Salmonella typhimurium = experiment: Inhibition zone assay (agar plate); format: cell-based
S. typhimurium = experiment: Minimal inhibitory concentration (liquid culture); conditions: inoculum 8 × 10^6 CFU/ml; a-b = highest concentration with growth - lowest without growth
E. coli 25922 = experiment: Minimal inhibitory concentration (liquid culture); conditions: inoculum 1100 CFU/ml; a-b = highest concentration with growth - lowest without growth
Haemophilus influenzae = experiment: Inhibition zone assay (agar plate); format: cell-based; conditions: 50 nanomoles/well, 3 mm wells
E. coli Apid^R = experiment: Minimal inhibitory concentration (liquid culture); format: cell-based; conditions: inoculum 1000 CFU/ml; a-b = highest concentration with growth - lowest without growth
Excerpt: For details see `Experimental Procedures`.

[2] = system: Escherichia coli (11775 Apid R); format: cell-based; conditions: agar plate, 50 nanomoles/well, 3 mm wells
A. calcoaceticus = experiment: Minimal inhibitory concentration (liquid culture); conditions: inoculum 16 × 10^6 CFU/ml; a-b = highest concentration with growth - lowest without growth
Rhizobium meliloti = experiment: Inhibition zone assay (agar plate); format: cell-based; conditions: 50 nanomoles/well, 3 mm wells
E. coli 23802 = experiment: Minimal inhibitory concentration (liquid culture); conditions: inoculum 5000 CFU/ml; a-b = highest concentration with growth - lowest without growth
Enterobacter cloacae = experiment: Inhibition zone assay (agar plate); format: cell-based
Francisella tularensis = format: cell-based; conditions: agar plate, 50 nanomoles/well, 3 mm wells
E. coli 11775 = experiment: Minimal inhibitory concentration (liquid culture); conditions: a-b = highest concentration with growth - lowest without growth
[3] = system: Escherichia coli (ATCC11775); experiment: Inhibition zone assay (agar plate); format: cell-based
M. morganii = experiment: Minimal inhibitory concentration (liquid culture); conditions: inoculum 400 CFU/ml; a-b = highest concentration with growth - lowest without growth
Morganella morganii = experiment: Inhibition zone assay (agar plate); format: cell-based; conditions: 50 nanomoles/well, 3 mm wells
[4] = system: Agrobacterium tumefaciens; experiment: Inhibition zone assay (agar plate); format: cell-based
Yersinia enterocolitica = experiment: Inhibition zone assay (agar plate); format: cell-based; conditions: 50 nanomoles/well, 3 mm wells
Y. enterocolitica = experiment: Minimal inhibitory concentration (liquid culture); conditions: inoculum 5000 CFU/ml; a-b = highest concentration with growth - lowest without growth
Pseudomonas syringae = experiment: Inhibition zone assay (agar plate); format: cell-based; conditions: agar plate, 50 nanomoles/well, 3 mm wells
strains tested = format: cell-based; conditions: agar plate
E. coli D22 = format: cell-based; conditions: 50 nanomoles per well (3 mm diameter)
Shigella dysenteriae = format: cell-based; conditions: 50 nanomoles per well (3 mm diameter)
[5] = agar plate, 50 nanomoles/well, 3 mm wells
[6] = 50 nanomoles per well (3 mm diameter)

Compound: CC[C@H](C)[C@H](NC(=O)[C@H](Cc1ccc(O)cc1)NC(=O)[C@@H](NC(=O)[C@@H]1CCCN1C(=O)[C@H](CCCNC(=N)N)NC(=O)[C@H](CC(N)=O)NC(=O)[C@H](CC(N)=O)NC(=O)CN)C(C)C)C(=O)N1CCC[C@H]1C(=O)N[C@@H](CCC(N)=O)C(=O)N1CCC[C@H]1C(=O)N[C@@H](CCCNC(=N)N)C(=O)N1CCC[C@H]1C(=O)N1CCC[C@H]1C(=O)N[C@@H](Cc1cnc[nH]1)C(=O)N1CCC[C@H]1C(=O)N[C@@H](CCCNC(=N)N)C(=O)N[C@@H](CC(C)C)C(=O)O [Apidaecin] (H-GNNRPVYIPQPRPPHPRL-OH)
- effect on gram positives (gram positives): unaffected
- dose inhibiting viability (gram negative bacteria): nanomolar doses

Compound: CC[C@H](C)[C@H](NC(=O)[C@@H]1CCCN1C(=O)[C@H](C)NC(=O)[C@@H]1CCCN1C(=O)[C@H](CCCNC(=N)N)NC(=O)[C@@H]1CCCN1C(=O)[C@H](CCCNC(=N)N)NC(=O)[C@@H](N)CC(N)=O)C(=O)N[C@@H](CCC(N)=O)C(=O)N1CCC[C@H]1C(=O)N[C@@H](CCCNC(=N)N)C(=O)N1CCC[C@H]1C(=O)N1CCC[C@H]1C(=O)N[C@@H](Cc1c[nH]cn1)C(=O)N1CCC[C@H]1C(=O)N[C@@H](CCCNC(=N)N)C(=O)N[C@@H](CC(C)C)C(=O)O [Cd 1-, Asn--Arg--Pro--Arg--Pro--Ala--Pro--Ile--Gln--Pro--Arg--Pro--Pro--His--Pro--Arg--Leu] (H-NRPRPAPIQPRPPHPRL-OH)
- inhibition zone diameter (number of plus signs) (Klebsiella pneumoniae; [5]): ++ ((++) 7-9 mm)
- inhibition zone diameter (number of plus signs) (Salmonella typhi; [5]): ++ ((++) 7-9 mm)
- inhibition zone diameter (number of plus signs) (Erwinia amylovora; [5]): ++++ ((++++) 15-19 mm)
- inhibition zone diameter (number of plus signs) [1, 5]: ++ ((++) 7-9 mm)
- inhibition zone diameter (number of plus signs) (Salmonella typhimurium; [5]): +++ ((+++) 10-14 mm)
- minimal inhibitory concentration (MIC) (S. typhimurium): 0.5 to 1 µg/mL
- minimal inhibitory concentration (MIC) (E. coli 25922): 0.5 to 1 µg/mL
- inhibition zone diameter (number of plus signs) (Haemophilus influenzae): +++ ((+++) 10-14 mm)
- minimal inhibitory concentration (MIC) (E. coli Apid^R): > 40 µg/mL
- inhibition zone diameter (number of plus signs) [2]: ++ ((++) 7-9 mm)
- minimal inhibitory concentration (MIC) (A. calcoaceticus): > 20 µg/mL
- inhibition zone diameter (number of plus signs) (Rhizobium meliloti): ++++ ((++++) 15-19 mm)
- minimal inhibitory concentration (MIC) (E. coli 23802): 5 to 10 µg/mL
- inhibition zone diameter (number of plus signs) (Enterobacter cloacae; [5]): +++ ((+++) 10-14 mm)
- inhibition zone diameter (number of plus signs) (Francisella tularensis): ++ ((++) 7-9 mm)
- minimal inhibitory concentration (MIC) (E. coli 11775; inoculum 16 × 10^6 CFU/ml): 0.5 to 1 µg/mL
- minimal inhibitory concentration (MIC) (E. coli 11775; inoculum 1200 CFU/ml): 0.5 to 1 µg/mL
- inhibition zone diameter (number of plus signs) [3, 5]: +++ ((+++) 10-14 mm)
- minimal inhibitory concentration (MIC) (M. morganii): 20 to 40 µg/mL
- inhibition zone diameter (number of plus signs) (Morganella morganii): ++ ((++) 7-9 mm)
- inhibition zone diameter (number of plus signs) [4, 5]: +++ ((+++) 10-14 mm)
- inhibition zone diameter (number of plus signs) (Yersinia enterocolitica): ++ ((++) 7-9 mm)
- minimal inhibitory concentration (MIC) (Y. enterocolitica): 5 to 10 µg/mL
- inhibition zone diameter (number of plus signs) (Pseudomonas syringae): ++++ ((++++) 15-19 mm)

Compound: CC(C)C[C@H](NC(=O)[C@H](CCCNC(=N)N)NC(=O)[C@@H]1CCCN1C(=O)[C@H](Cc1c[nH]cn1)NC(=O)[C@@H]1CCCN1C(=O)[C@@H](NC(=O)[C@H](CCCNC(=N)N)NC(=O)[C@@H]1CCCN1C(=O)[C@@H]1CCCN1C(=O)[C@@H](NC(=O)[C@H](CCC(N)=O)NC(=O)[C@H](CCC(N)=O)NC(=O)[C@@H]1CCCN1C(=O)[C@H](CCCNC(=N)N)NC(=O)[C@@H]1CCCN1C(=O)[C@H](CCCCN)NC(=O)[C@@H](N)Cc1ccccc1)C(C)C)[C@@H](C)O)C(=O)O [HoFT, F K P R P Q Q V P P R T P H P R L] (H-FKPRPQQVPPRTPHPRL-OH)
- antibacterial activity, overall (inhibition zone) (strains tested): lack detectable antibacterial activity

Compound: CC(C)C[C@H](NC(=O)[C@H](CCCNC(=N)N)NC(=O)[C@@H]1CCCN1C(=O)[C@H](Cc1c[nH]cn1)NC(=O)[C@@H]1CCCN1C(=O)[C@@H](NC(=O)[C@H](CCCNC(=N)N)NC(=O)[C@@H]1CCCN1C(=O)[C@@H]1CCCN1C(=O)[C@@H](NC(=O)[C@H](CCC(N)=O)NC(=O)[C@H](CCC(N)=O)NC(=O)[C@@H]1CCCN1C(=O)[C@H](CCCNC(=N)N)NC(=O)[C@@H]1CCCN1C(=O)[C@H](CCCCN)NC(=O)CN)C(C)C)[C@@H](C)O)C(=O)O [HoGT, G K P R P Q Q V P P R T P H P R L] (H-GKPRPQQVPPRTPHPRL-OH)
- antibacterial activity, overall (inhibition zone) (strains tested): lack detectable antibacterial activity

Compound: CC[C@H](C)[C@H](NC(=O)[C@@H]1CCCN1C(=O)[C@@H](NC(=O)[C@H](CCC(N)=O)NC(=O)[C@@H]1CCCN1C(=O)[C@H](CO)NC(=O)[C@@H]1CCCN1C(=O)[C@H](CCCNC(=N)N)NC(=O)[C@@H](N)CO)C(C)C)C(=O)N[C@@H](CCCNC(=N)N)C(=O)N1CCC[C@H]1C(=O)N[C@@H](CO)C(=O)N[C@@H](CCC(N)=O)C(=O)N1CCC[C@H]1C(=O)N[C@@H](CCCNC(=N)N)C(=O)N1CCC[C@H]1C(=O)N[C@@H](CCC(N)=O)C(=O)N1CCC[C@H]1C(=O)N[C@@H](Cc1ccccc1)C(=O)N[C@@H](CCCCN)C(=O)N1CCC[C@H]1C(=O)N[C@@H](CCCNC(=N)N)C(=O)N1CCC[C@H]1C(=O)N[C@@H](CCC(N)=O)C(=O)N[C@@H](CCC(N)=O)C(=O)N[C@H](C(=O)N1CCC[C@H]1C(=O)N1CCC[C@H]1C(=O)N[C@@H](CCCNC(=N)N)C(=O)N[C@H](C(=O)N1CCC[C@H]1C(=O)N[C@@H](Cc1c[nH]cn1)C(=O)N1CCC[C@H]1C(=O)N[C@@H](CCCNC(=N)N)C(=O)N[C@@H](CC(C)C)C(=O)O)[C@@H](C)O)C(C)C [PAB-FT 1-35, SRPSPQVPIRPSQPRPQPFKPRPQQVPPRTPHPRL] (H-SRPSPQVPIRPSQPRPQPFKPRPQQVPPRTPHPRL-OH)
- Inhibition zones: in mm diameter (Klebsiella pneumoniae; [6]): 9 mm
- Inhibition zones: in mm diameter (Salmonella typhi; [6]): 14 mm
- Inhibition zones: in mm diameter (Erwinia amylovora; [6]): 5 mm
- Inhibition zones: in mm diameter [1, 6]: 7 mm
- Inhibition zones: in mm diameter (E. coli D22): 14 mm
- Inhibition zones: in mm diameter (Shigella dysenteriae): 12 mm
- Inhibition zones: in mm diameter (Salmonella typhimurium; [6]): 7 mm
- antibacterial activity, overall (inhibition zone) (strains tested): has antibacterial activity
- Inhibition zones: in mm diameter (Enterobacter cloacae; [6]): 11 mm
- Inhibition zones: in mm diameter [3, 6]: 10 mm
- Inhibition zones: in mm diameter [4, 6]: 5 mm
